Reference: PubChem BioAssay (NCI)
“And” between values parts separate entries of the source, which are not always exact repeats. Identical values can stand only once.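 96-well plates; 48 h exposure; 5 concentrations. Endpoints by linear interpolation between flanking doses. Not reached: highest tested concentration assigned. Abbreviation: GI50, concentration required for 50% inhibition of growth. The concentration for full growth arrest is given as TGI.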

Tests used:
Test in all cases: growth of human tumour cells (NCI), 48 h
BT-549 breast = system: BT-549 breast
SF-295 CNS = system: SF-295 CNS
SK-MEL-5 melanoma = system: SK-MEL-5 melanoma
SK-OV-3 ovarian = system: SK-OV-3 ovarian
A549 NSCLC = system: A549 NSCLC
SK-MEL-28 melanoma = system: SK-MEL-28 melanoma
MDA-MB-435 = system: MDA-MB-435
UACC-257 melanoma = system: UACC-257 melanoma
HCT-15 colon = system: HCT-15 colon
SNB-75 CNS = system: SNB-75 CNS

SMILES	GI50 (BT-549 breast)	TGI (BT-549 breast)	GI50 (SF-295 CNS)	TGI (SF-295 CNS)	GI50 (SK-MEL-5 melanoma)	TGI (SK-MEL-5 melanoma)	GI50 (SK-OV-3 ovarian)	TGI (SK-OV-3 ovarian)	GI50 (A549 NSCLC)	TGI (A549 NSCLC)	GI50 (SK-MEL-28 melanoma)	TGI (SK-MEL-28 melanoma)	GI50 (MDA-MB-435)	TGI (MDA-MB-435)	GI50 (UACC-257 melanoma)	TGI (UACC-257 melanoma)	GI50 (HCT-15 colon)	TGI (HCT-15 colon)	GI50 (SNB-75 CNS)	TGI (SNB-75 CNS)
CCN(CCO)CCCC(C)Nc1ccnc2cc(Cl)ccc12 (stereo not given)	> 100 µM	> 100 µM	> 100 µM	> 100 µM	> 100 µM	> 100 µM	> 100 µM	> 100 µM	> 100 µM	> 100 µM	> 100 µM	> 100 µM	> 100 µM	> 100 µM	> 100 µM	> 100 µM	> 100 µM	> 100 µM	> 100 µM	> 100 µM
O=C(CCCC(=O)N/N=C/c1cc(Cl)ccc1O)N/N=C\c1cc(Cl)ccc1O	7.34 µM	> 100 µM	3.74 µM	> 100 µM	2.5 µM	> 100 µM	5.95 µM	> 100 µM	3.69 µM	> 100 µM	3.68 µM	> 100 µM	6.87 µM	> 100 µM	2.71 µM	> 100 µM	0.574 µM	> 100 µM	8.16 µM	> 100 µM
COc1ccc(CNCCCN2C(=O)c3ccc4c5c(ccc(c35)C2=O)C(=O)N(CCCNCc2ccc(OC)c(OC)c2OC)C4=O)c(OC)c1OC	0.262 µM	0.503 µM	0.119 µM	0.331 µM	0.0792 µM	0.147 µM	0.264 µM	0.848 µM	0.103 µM	0.231 µM	0.508 µM	1.12 µM	0.0925 µM	0.177 µM	0.0921 µM	0.167 µM	0.244 µM	0.952 µM	0.139 µM	0.442 µM
O=[N+]([O-])c1ccc(N=Nc2c(Cl)cc(O)cc2Cl)cc1	1.67 µM	6.41 µM	1.56 µM	3.06 µM	1.48 µM	3.55 µM	2.1 µM	10.3 µM	2.88 µM	11.8 µM	1.92 µM	8.55 µM	0.943 µM	3.16 µM	1.65 µM	4.49 µM	2.02 µM	10.3 µM	> 100 µM	> 100 µM
CC1(C)N=c2cc3c(cc2N1c1ccc(Cl)cc1)=Nc1ccccc1N3c1ccc(Cl)cc1	3.5 µM	60.8 µM	2.08 µM	28.5 µM	3.64 µM	20.3 µM	> 100 µM	> 100 µM	5.93 µM	> 100 µM	45.3 µM	> 100 µM	12.1 µM	> 100 µM	5.52 µM	> 100 µM	4.26 µM	> 100 µM	2.45 µM	71.6 µM
COC(=O)C1=C(C(=O)ON)[C@@H]2C=C[C@@]1([C@@H](Cc1ccccc1)Nc1ccccc1)O2	7.06 µM	19.6 µM	15.1 µM	28.8 µM	14.7 µM	27.8 µM	15.6 µM	29.2 µM	16.9 µM	32.2 µM	1.93 µM	3.54 µM	4.33 µM	16.5 µM	2.07 µM	4.5 µM	1.76 µM	4.1 µM	12.4 µM	24.9 µM
FC(F)(F)c1cc(NC(=S)N2c3ccccc3-n3cccc3C2c2cccnc2)cc(C(F)(F)F)c1 (stereo not given)	8.96 µM	45.7 µM	5.52 µM	21.1 µM	11.6 µM	23.9 µM	11.9 µM	27.5 µM	9.25 µM	26.8 µM	15.7 µM	37.1 µM	6.57 µM	22.1 µM	3.9 µM	15.7 µM	4.76 µM	27.7 µM	7.07 µM	22.7 µM
O=C1OC(c2ccc(Cl)cc2)=N/C1=C\c1ccccc1	–	> 100 µM	–	> 100 µM	–	> 100 µM	–	> 100 µM	–	> 100 µM	–	> 100 µM	–	> 100 µM	–	> 100 µM	–	> 100 µM	–	> 100 µM
CCCCc1n(Cc2ccc3ccccc3n2)cc[n+]1Cc1ccc2ccccc2n1	0.97 µM	5.86 µM	2.45 µM	9.88 µM	0.827 µM	2.21 µM	2 µM	7.23 µM	4.75 µM	18.6 µM	1.05 µM	12.2 µM	0.71 µM	7.78 µM	0.543 µM	4.32 µM	14.8 µM	31.5 µM	0.889 µM	6.01 µM
Cc1ccc2[nH]c(C(=O)NN3C(=O)C(C)SC34CCC(C)CC4)c(-c3ccccc3)c2c1 (stereo not given)	19.4 µM	36.3 µM	14.3 µM	32.9 µM	18.4 µM	36.3 µM	33.4 µM	> 100 µM	14.3 µM	31.8 µM	17.8 µM	35.9 µM	16.5 µM	35.4 µM	19.1 µM	44.5 µM	19.4 µM	53.1 µM	24.4 µM	51.4 µM
COc1ccc(C2CC(c3ccc(OC)cc3O)=NN2c2ccc(S(N)(=O)=O)cc2)cc1 (stereo not given)	13.5 µM	57.2 µM	29.4 µM	> 100 µM	14.9 µM	> 100 µM	26.1 µM	> 100 µM	6.36 µM	> 100 µM	15 µM	> 100 µM	6.56 µM	> 100 µM	15.9 µM	> 100 µM	5.98 µM	> 100 µM	20.8 µM	> 100 µM
CC(=O)Nc1ccc(OC(C)=O)cc1	< 0.01 µM	0.165 µM	< 0.01 µM	12.4 µM	< 0.01 µM	< 0.01 µM	< 0.01 µM	–	< 0.01 µM	30.8 µM	< 0.01 µM	48 µM	< 0.01 µM	< 0.01 µM	–	29.7 µM	< 0.01 µM	16.6 µM	< 0.01 µM	28.6 µM
CN[C@@H](Cc1cccc2ccccc12)C(=O)N[C@@H](CC(C)C)B(O)O	–	0.0243 µM	0.0231 µM	0.0828 µM and 0.0156 µM	0.0249 µM	0.103 µM and 0.0128 µM	0.0944 µM	> 100 µM	0.0465 µM	–	0.0119 µM	0.0271 µM	0.00425 µM	0.0147 µM	0.0169 µM and 0.0131 µM	0.0337 µM and 0.04 µM	0.0172 µM	0.0459 µM and 0.406 µM	0.0227 µM	0.0617 µM
CCc1cccc(NC(=O)Nc2ccc(Oc3ccc4nc(NC(=O)OC)[nH]c4c3)cc2)c1	8.24 µM	24.4 µM	3.4 µM	> 20.4 µM	1.29 µM	7.15 µM	4.99 µM	11.5 µM	5.35 µM	> 15.3 µM	3.52 µM	9.49 µM	0.0716 µM	0.643 µM	3.58 µM	> 22.3 µM	2.93 µM	> 25 µM	2.53 µM	> 14.1 µM
CC1(C)CCc2c(c(N=Nc3ccccc3F)c3ccccc3c2O)O1	33.5 µM	> 100 µM	17.8 µM	44 µM	52.6 µM	> 100 µM	25.7 µM	75.9 µM	34 µM	> 100 µM	> 100 µM	> 100 µM	> 100 µM	> 100 µM	> 100 µM	> 100 µM	78.3 µM	> 100 µM	20.4 µM	53.3 µM
O=C1c2ccccc2C(=O)c2c1oc1c2c(=O)[nH]c2ccc(Cl)cc21	0.304 µM	1.31 µM	0.637 µM	2.29 µM	0.305 µM	1.21 µM	0.348 µM	1.78 µM	1.03 µM	2.92 µM	0.339 µM	1.23 µM	0.297 µM	1.19 µM	1.33 µM	3.36 µM	0.208 µM	0.512 µM	0.16 µM	0.418 µM
O=C(Nc1cccc(C(F)(F)F)c1)c1ccc(NC2=C(Cl)C(=O)N(Cc3ccccc3)C2=O)cc1	1.25 µM	5.49 µM	10.1 µM	23.6 µM	4.07 µM	18.1 µM	25.7 µM	82.6 µM	34.1 µM	84.9 µM	18.2 µM	36.5 µM	6.92 µM	20.5 µM	27.9 µM	58 µM	4.41 µM	18.9 µM	23.1 µM	51.4 µM
Cc1ccc(-c2nc(/C=N/Nc3cc(C)nc4ccc(Br)cc34)c(C)o2)cc1	14 µM	29.3 µM	2.86 µM	8.8 µM	3.7 µM	13.6 µM	1.8 µM	3.29 µM	1.82 µM	3.52 µM	1.73 µM	3.25 µM	1.72 µM	3.12 µM	2.13 µM	5.02 µM	1.86 µM	3.64 µM	1.74 µM	3.39 µM
O=C(c1ccc2ccccc2c1)c1c(C(F)(F)F)n([O-])c2cc(C(F)(F)F)ccc2[n+]1=O	1.43 µM	2.9 µM	1.45 µM	2.84 µM	8.14 µM	–	1.79 µM	3.23 µM	1.66 µM	3.51 µM	1.74 µM	3.38 µM	1.71 µM	3.31 µM	1.22 µM	2.69 µM	1.69 µM	3.4 µM	1.73 µM	3.13 µM
C=CCOc1ccc(N)c([N+](=O)[O-])c1	–	> 100 µM	–	> 100 µM	–	> 100 µM	–	> 100 µM	–	> 100 µM	–	> 100 µM	–	> 100 µM	–	> 100 µM	–	> 100 µM	–	> 100 µM
COc1cc(NS(C)(=O)=O)ccc1Cc1c2ccccc2nc2ccccc12	0.267 µM	1.97 µM	0.0475 µM	1.22 µM	0.121 µM	1.11 µM	0.115 µM	1.02 µM	0.0164 µM	1.06 µM	0.672 µM	2.36 µM	1.23 µM	11.3 µM	0.493 µM	2.67 µM	0.371 µM	2.76 µM	0.188 µM	1.54 µM
CC1=C2[C@@H](CC1)[C@]1(C)O[C@@](C(C)C)(C[C@H]1OC(=O)CO)[C@H]2OC(=O)CCCc1ccccc1	4.44 µM	15.7 µM	12.5 µM	24.9 µM	7.91 µM	20.3 µM	16.6 µM	30.6 µM	6.96 µM	41.5 µM	13.9 µM	26.8 µM	13.1 µM	26.2 µM	13.1 µM	27.2 µM	9.02 µM	22.2 µM	2.08 µM	18.5 µM
CCCS(=O)(=O)Nc1cccc(Nc2ncnc3cc(NC(=O)CCl)ccc23)c1Cl	2.42 µM	6.69 µM	3.33 µM	7.17 µM	3.4 µM	7.14 µM	4 µM	8.16 µM	4.99 µM	10.1 µM	2.45 µM	9.67 µM	1.47 µM	5.76 µM	2.46 µM	7.57 µM	1.6 µM	6.95 µM	2.46 µM	5.72 µM
